From ChEMBL document CHEMBL4342474, “Scaffold and Parasite Hopping: Discovery of New Protozoal Proliferation Inhibitors” (ACS Med Chem Lett, 2020)
Values after ≈ are worked out from the molar mass of the structure shown. Active and inactive are the calls of the source. No cut-off for these calls is given here.

Assays:
Trypanosoma cruzi [1] = experiment: Antitrypanosomal activity against Trypanosoma cruzi CaI-72 trypomastigotes infected in mouse C2C12 cells measured after 72 hrs by DAPI staining based assay; assay type: functional, organism-based; conditions: CaI-72, C2C12, 72 h
Plasmodium falciparum = experiment: Antiplasmodial activity against Plasmodium falciparum D6 measured after 72 hrs by SYBR green fluorescence dye based microplate reader analysis; assay type: functional, organism-based; conditions: D6, 72 h
Leishmania major = experiment: Antileishmanial activity against Leishmania major amastigotes infected in mouse RAW 264.7 cells by luciferase reporter gene assay; assay type: functional, organism-based; conditions: RAW264.7
[2] = Selectivity index, ratio of TC50 for human HepG2 cells to EC50 for antiplasmodial activity against Plasmodium falciparum D6; assay type: toxicity
[3] = Selectivity index, ratio of TC50 for mouse C2C12 cells to EC50 for antitrypanosomal activity against Trypanosoma cruzi CaI-72 trypomastigotes infected in mouse C2C12 cells; assay type: toxicity, cell-based
[4] = Aqueous solubility of compound at pH 7.4; assay type: physicochemical; conditions: aqueous solution, read-out: solubility
[5] = Intrinsic clearance in human liver microsomes assessed as per mg protein; assay type: ADME, Microsome
[6] = Cytotoxicity against human HepG2 cells assessed as reduction in cell viability; assay type: cell-based; conditions: read-out: TC50 (the source's name)
Trypanosoma cruzi [7] = experiment: Antitrypanosomal activity against Trypanosoma cruzi Tulahuen trypomastigotes infected in mouse NIH/3T3 cells measured after 96 hrs by beta-galactosidase reporter gene assay; assay type: functional, organism-based; conditions: NIH3T3, 96 h
[8] = Intrinsic clearance in rat hepatocytes assessed as per million cells; assay type: ADME, cell-based, Hepatocyte; conditions: read-out: CLH
[9] = Protein binding in human plasma; assay type: ADME, cell-free; conditions: read-out: PPB (converted)
[10] = Selectivity index, ratio of TC50 for human HepG2 cells to EC50 for antileishmanial activity against Leishmania major amastigotes infected in mouse RAW 264.7 cells; assay type: toxicity, cell-based
Leishmania donovani [11] = experiment: Antileishmanial activity against Leishmania donovani infected in mouse B10R cells after 72 hrs by DAPI staining based assay; assay type: functional, organism-based
[12] = Selectivity index, ratio of TC50 for mouse B10R cells to EC50 for antileishmanial activity against Leishmania donovani infected in mouse B10R cells; assay type: toxicity, cell-based
Leishmania donovani [13] = experiment: Antileishmanial activity against Leishmania donovani promastigotes infected in BALB/c mouse assessed as effect on parasitemia at 50 mg/kg bid for 14 days and measured after 5 weeks post infection; assay type: functional, organism-based

SMILES | EC50 (Trypanosoma cruzi [1]) | EC50 (Plasmodium falciparum) | EC50 (Leishmania major) | EC50 (Leishmania donovani [11]) | selectivity ratio [2] | selectivity ratio [3] | selectivity ratio [10] | other results
O=S(=O)(c1ccc(-c2ccc3nccc(NCCN4CCCC4)c3c2)cc1)N1CCOCC1 | 1900 nM | 30 nM | > 21000 nM | – | 307 | 0.89 | – | –
CN1CCN(c2ccc(Nc3ccc4c(Nc5cnccn5)ccnc4c3)cc2)CC1 | – | 130 nM | 7900 nM | – | – | – | – | –
CS(=O)(=O)N1CCN(c2ncc(-c3ccc4c(Nc5cnccn5)ccnc4c3)cn2)CC1 | – | > 4300 nM | 730 nM | – | – | – | > 45 | solubility [4]: 0.06 µM (≈ 0.0278 µg/mL); microsomal CLint ([5]; liver microsomes, read-out: CLH): 44 µL/min/mg; CC50 [6]: > 33000 nM; EC50 (Trypanosoma cruzi [7]): 45000 nM; hepatocyte CLint [8]: 28 µL/min/1e6 cells; fraction unbound [9]: 0.05
CN1CCN(c2ncc(-c3ccc4c(NC5CCC(N(C)C)CC5)ccnc4c3)cn2)CC1 (stereo unspecified) | > 10000 nM | 53 nM | > 2200 nM | > 10000 nM | – | – | – | –
CCN1CCN(c2ncc(-c3ccc4c(Nc5cnccn5)ccnc4c3)cn2)CC1 | 7700 nM | 29 nM | 24000 nM | – | – | – | – | –
CN1CCCN(c2ncc(-c3ccc4c(Nc5cnccn5)ccnc4c3)cn2)CC1 | 1200 nM | 24 nM | 24000 nM | – | – | – | – | –
CN1CCN(c2ncc(-c3ccc4c(NCC5CCOCC5)ccnc4c3)cn2)CC1 | 1200 nM | 26 nM | > 24000 nM | 8700 nM | 615 | 3.2 | – | –
CN1CCN(c2nccc(Nc3ccc4c(Nc5cnccn5)ccnc4c3)n2)CC1 | – | 180 nM | 3300 nM | – | – | – | – | EC50 (Trypanosoma cruzi [7]): > 50000 nM
CC(C)(C)OC(=O)N1CCN(c2ncc(-c3ccc4c(Nc5cnccn5)ccnc4c3)cn2)CC1 | – | 150 nM | 350 nM | – | > 207 | – | > 89 | EC50 (Trypanosoma cruzi [7]): > 50000 nM
CN1CCN(c2ccnc(Nc3ccc4c(Nc5cnccn5)ccnc4c3)n2)CC1 | – | 54 nM | – | – | – | – | – | EC50 (Trypanosoma cruzi [7]): > 20000 nM
CN1CCN(c2ncc(-c3ccc4c(N[C@@H]5CCCC[C@H]5O)ccnc4c3)cn2)CC1 | > 10000 nM | 37 nM | > 2400 nM | > 10000 nM | – | – | – | –
CCCN1CCN(c2ncc(-c3ccc4c(Nc5cnccn5)ccnc4c3)cn2)CC1 | 7600 nM | 23 nM | 4300 nM | – | – | – | – | –
CN1CCCN(c2ncc(-c3ccc4c(Nc5ccc(OC(F)(F)F)cc5)ccnc4c3)cn2)CC1 | 60 nM | 6 nM | 8200 nM | 85 nM | 233 | 38 | 0.8 | selectivity ratio [12]: 7.8
CN1CCCN(S(=O)(=O)c2ccc(-c3ccc4c(Nc5ccc(OC(F)(F)F)cc5)ccnc4c3)cc2)CC1 | 130 nM | 140 nM | 220 nM | > 10000 nM | 11 | 40 | 7.3 | –
CN1CCN(c2ncc(-c3ccc4/c(=N/c5cnccn5)ccn(C)c4c3)cn2)CC1 | > 10000 nM | 180 nM | 2300 nM | > 10000 nM | 133 | – | > 10 | –
CN1CCN(c2ccc(-c3ccc4c(Nc5cnccn5)ccnc4c3)cc2)CC1 | – | 74 nM | > 23000 nM | – | – | – | – | EC50 (Trypanosoma cruzi [7]): 6100 nM
CN1CCN(c2ncc(-c3ccc4c(NC5CCOCC5)ccnc4c3)cn2)CC1 | > 10000 nM | 25 nM | > 25000 nM | 4000 nM | 600 | – | – | –
CN1CC2(CCN(c3ncc(-c4ccc5c(Nc6cnccn6)ccnc5c4)cn3)C2)C1 | 220 nM | 58 nM | > 24000 nM | – | > 414 | 1.9 | – | –
COc1ccc(NC(=O)c2ccc(-c3cnc(N4CCCN(C)CC4)nc3)cc2O)cc1Cl | > 10000 nM | 88 nM | > 4300 nM | > 10000 nM | – | – | – | –
CN1CCCN(c2ncc(-c3ccc(C(=O)Nc4cccc(Cl)c4F)c(O)c3)cn2)CC1 | 3900 nM | 71 nM | > 2200 nM | – | > 310 | 1.6 | – | –
CN1C[C@H]2C[C@@H]1CN2c1ncc(-c2ccc3c(Nc4cnccn4)ccnc3c2)cn1 | 6100 nM | 52 nM | 2600 nM | – | – | – | – | –
CN1CCN(c2ncc(-c3ccc4c(NCCN5CCCC5)ccnc4c3)cn2)CC1 | 2100 nM | 24 nM | > 24000 nM | > 10000 nM | – | – | – | –
O=S(=O)(c1ccc(-c2ccc3nccc(NCCC4CCOCC4)c3c2)cc1)N1CCOCC1 | 4700 nM | 75 nM | > 21000 nM | > 10000 nM | > 280 | 1.3 | – | –
Cc1cncc(Nc2ccnc3cc(-c4cnc(N5CCCN(C)CC5)nc4)ccc23)n1 | – | 19 nM | 9200 nM | – | 947 | – | 2 | –
c1cnc(Nc2ccnc3cc(-c4cnc(N5CCNCC5)nc4)ccc23)cn1 | – | 130 nM | > 5200 nM | – | > 300 | – | – | EC50 (Trypanosoma cruzi [7]): > 50000 nM
Cc1c(-c2cnc(N3CCN(C)CC3)nc2)ccc2c(Nc3cnccn3)ccnc12 | – | 69 nM | > 24000 nM | – | – | – | – | EC50 (Trypanosoma cruzi [7]): 25000 nM
COc1ccc(NC(=O)c2cc(F)c(N3CCCN(C)CC3)cc2F)cc1Cl | 5500 nM | 4600 nM | > 24000 nM | – | > 5.2 | 1.6 | – | –
CN1CCCN(c2ncc(-c3ccc4c(Nc5cccnc5)ccnc4c3)cn2)CC1 | > 10000 nM | 25 nM | > 22000 nM | > 10000 nM | > 1320 | – | – | –
CN1CCN(c2ncc(-c3ccc4c(Nc5ccc(OCc6cccc(F)c6)c(Cl)c5)ccnc4c3)cn2)CC1 | 30 nM | 18 nM | > 1500 nM | 23 nM | 167 | 290 | – | selectivity ratio [12]: 1740; Activity (Leishmania donovani [13]): inactive

Now from value to molecule, other results behind:

EC50 (Trypanosoma cruzi [1]) | EC50 (Plasmodium falciparum) | EC50 (Leishmania major) | EC50 (Leishmania donovani [11]) | SMILES | selectivity ratio [2] | selectivity ratio [3] | selectivity ratio [10] | other results
2100 nM | 87 nM | 1500 nM | > 10000 nM | CCCn1cc/c(=N\c2cnccn2)c2ccc(-c3cnc(N4CCCN(C)CC4)nc3)cc21 | > 379 | 1.4 | > 22 | –
370 nM | 10 nM | 5500 nM | – | CN1CCCN(c2ccc(-c3ccc4c(Nc5cnccn5)ccnc4c3)cc2)CC1 | 960 | 1 | 1.7 | solubility [4]: 4.1 µM (≈ 1.68 µg/mL)
> 10000 nM | > 23000 nM | 360 nM | > 10000 nM | COc1ccc(NC(=O)c2ccc(-c3cccc(N4CCOCC4)c3)cc2O)cc1Cl | – | – | > 97 | –
10000 nM | 120 nM | – | 20 nM | CN1CCCN(c2ncc(-c3ccc4/c(=N/c5cnccn5)ccn(C)c4c3)cn2)CC1 | – | – | – | CLH ([5]; microsomes): 22 µL/min; hepatocyte CLint [8]: 13 µL/min/1e6 cells; Activity (Leishmania donovani [13]): inactive
– | 77 nM | 1700 nM | – | CN1CCN(c2ncc(Nc3ccc4c(Nc5cnccn5)ccnc4c3)cn2)CC1 | 312 | – | 14 | EC50 (Trypanosoma cruzi [7]): 47000 nM
160 nM | 51 nM | 1300 nM | > 10000 nM | CN1CCCN(S(=O)(=O)c2ccc(-c3ccc4c(Nc5ccc(Cl)cn5)ccnc4c3)cc2)CC1 | 35 | 21 | 1.4 | –
80 nM | 6 nM | 1600 nM | > 10000 nM | COc1ccc(Nc2ccnc3cc(-c4cnc(N5CCCN(C)CC5)nc4)ccc23)cc1Cl | 1130 | 12 | 4.3 | –
210 nM | 37 nM | 440 nM | 640 nM | Cc1ccc2[nH]c3c4ccc(-c5cnc(N6CCCN(C)CC6)nc5)cc4ncc3c2c1 | 127 | 2.4 | 10 | selectivity ratio [12]: 3.6
– | 24 nM | > 23000 nM | – | Cc1cnc(Nc2ccnc3cc(-c4cnc(N5CCCN(C)CC5)nc4)ccc23)cn1 | – | – | – | –
520 nM | 30 nM | > 23000 nM | – | CN1CCC2(CCN(c3ncc(-c4ccc5c(Nc6cnccn6)ccnc5c4)cn3)C2)C1 (stereo unspecified) | 533 | 19 | – | –
1300 nM | 39 nM | > 24000 nM | > 10000 nM | CN1CCCN(c2ncc(-c3ccc4c(Nc5ccccn5)ccnc4c3)cn2)CC1 | 487 | 7.5 | – | –
– | 180 nM | 1800 nM | – | Cc1cc2c(Nc3cnccn3)ccnc2cc1-c1cnc(N2CCN(C)CC2)nc1 | 33 | – | 3.3 | EC50 (Trypanosoma cruzi [7]): 22000 nM
3000 nM | 170 nM | 23000 nM | > 10000 nM | CCn1cc/c(=N\c2cnccn2)c2ccc(-c3cnc(N4CCCN(C)CC4)nc3)cc21 | > 200 | 1 | > 1.5 | –
240 nM | 46 nM | > 5000 nM | – | CN1CCCN(c2ncc(-c3ccc4c(c3)ncc3c5ccccc5[nH]c43)cn2)CC1 | > 161 | 6.7 | – | –
